# Experimental data published in patent US9394264B2 (Receptos, Inc., priority 2009, dated 2016).
# pEC50: −log10 of the molar value.
# Target: S1P1/EDG1 (Homo sapiens, UniProt P21453)
# Test: S1P1 CRE-bla CHOK1 reporter assay (inhibition of Forskolin induced cAMP)
# Format: cell-based
# Conditions: agonist activity range, S1P1 CRE-bla CHOK1 cells, 2 μM Forskolin; read-out: S1P1 ACTIVITY
# Text: A mammalian expression plasmid containing S1P1/EDG1 cloned into pcDNA3.1 was purchased from Missouri S&T cDNA Resource Centre. The nucleotide and amino acid sequence of human S1P1/EDG1 are published in Hla and Maciag (J Biol Chem, 265(1990), 9308-9313). S1P1/pcDNA3.1 was transfected into the CRE-bla CHO K1 (Invitrogen) cell line, and stable single cell clones were selected using standard techniques. Expression of functional S1P1/EDG1 receptor was confirmed by cell surface FACS with a S1P1 antibody (R&D Systems, clone 218713) and S1P-mediated inhibition of Forskolin induced cAMP.
# Cells were seeded into 384-well black wall/clear bottom plates at 10^4 cells/well/19.5 μl assay media (DMEM-phenol free, 0.5% charcoal/dextran stripped serum, 2 mM glutamine, 0.1 mM NEAA, 1 mM Na-Pyruvate, 25 mM Hepes) and incubated for 18 hrs at 37° C. in 5% CO2. Dose response curves (10-point) were generated in 10 mM Hepes, 0.1% Pluronic F127, in the presence of Forskolin. Cells were treated with 0.5 μl compound in the presence of 2 μM Forskolin for 4 hrs at 37° C. The FRET-based β-lactamase fluorescent substrate (LiveBLAzer™-FRET B/G Loading Kit CC4-AM; Invitrogen) was prepared according to manufacturer's directions, and incubated with cells for 2 hrs at room temperature. Plates were read at Ex:410/Em:458 and Ex:410/Em:522, and the response ratio determined. Data was analyzed by non-linear regression to determine the EC50 for inhibition of Forskolin induced cAMP.
# Sequence of S1P1/EDG1 (P21453 whole entry): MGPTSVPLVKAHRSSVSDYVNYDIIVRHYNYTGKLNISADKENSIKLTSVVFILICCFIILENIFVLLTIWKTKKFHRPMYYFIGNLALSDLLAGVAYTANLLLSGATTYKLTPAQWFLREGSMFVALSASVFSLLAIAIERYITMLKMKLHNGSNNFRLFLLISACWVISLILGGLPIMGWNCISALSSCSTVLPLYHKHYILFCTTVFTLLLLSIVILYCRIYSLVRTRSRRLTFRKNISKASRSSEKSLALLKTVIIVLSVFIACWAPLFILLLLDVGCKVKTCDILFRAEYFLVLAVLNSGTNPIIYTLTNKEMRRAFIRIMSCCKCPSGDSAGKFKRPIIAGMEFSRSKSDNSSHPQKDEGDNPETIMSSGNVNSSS
row,Structure (SMILES),pEC50
1,"CC(=O)N[C@@H]1CCCc2c(-c3noc(-c4ccc(OC(C)C)c(C#N)c4)n3)cccc21 [Compound 21, (R)-N-(5-(5-(3-cyano-4-isopropoxyphenyl)-1,2,4-oxadiazol-3-yl)-1,2,3,4-tetrahydronaphthalen-1-yl)acetamide]",9.30 to 10.30
2,"CC(=O)N[C@H]1CCCc2c(-c3noc(-c4ccc(OC(C)C)c(C#N)c4)n3)cccc21 [Compound 22, (S)-N-(5-(5-(3-cyano-4-isopropoxyphenyl)-1,2,4-oxadiazol-3-yl)-1,2,3,4-tetrahydronaphthalen-1-yl)acetamide]",9.30 to 10.30
3,COCC(=O)N[C@@H]1CCCc2c(-c3noc(-c4ccc(OC(C)C)c(C#N)c4)n3)cccc21 [Compound 23],8.30 to 9.30
4,COCC(=O)N[C@H]1CCCc2c(-c3noc(-c4ccc(OC(C)C)c(C#N)c4)n3)cccc21 [Compound 24],9.30 to 10.30
5,CC(C)Oc1ccc(-c2nc(-c3cccc4c3CCC[C@H]4NC(=O)CN(C)C)no2)cc1C#N [Compound 25],8.30 to 9.30
6,"CC(C)Oc1ccc(-c2nc(-c3cccc4c3CCC[C@H]4NS(N)(=O)=O)no2)cc1C#N [Compound 26, (R)-N-(5-(5-(3-cyano-4-isopropoxyphenyl)-1,2,4-oxadiazol-3-yl)-1,2,3,4-tetrahydronaphthalen-1-yl)sulfamide]",9.30 to 10.30
7,"CC(C)Oc1ccc(-c2nc(-c3cccc4c3CCC[C@@H]4NS(N)(=O)=O)no2)cc1C#N [Compound 27, (S)-N-(5-(5-(3-cyano-4-isopropoxyphenyl)-1,2,4-oxadiazol-3-yl)-1,2,3,4-tetrahydronaphthalen-1-yl)sulfamide]",> 10.30
8,"CC(C)Oc1ccc(-c2nc(-c3cccc4c3CCC[C@H]4NS(C)(=O)=O)no2)cc1C#N [Compound 28, (R)-N-(5-(5-(3-cyano-4-isopropoxyphenyl)-1,2,4-oxadiazol-3-yl)-1,2,3,4-tetrahydronaphthalen-1-yl)methanesulfonamide]",9.30 to 10.30
9,CC(C)Oc1ccc(-c2nc(-c3cccc4c3CCC[C@H]4NS(=O)(=O)C3CC3)no2)cc1C#N [Compound 30],9.30 to 10.30
10,CC(C)Oc1ccc(-c2nc(-c3cccc4c3CCC[C@@H]4NS(=O)(=O)C3CC3)no2)cc1C#N [Compound 31],8.30 to 9.30
11,"COCCS(=O)(=O)N[C@@H]1CCCc2c(-c3noc(-c4ccc(OC(C)C)c(C#N)c4)n3)cccc21 [Compound 32, (R)-N-(5-(5-(3-cyano-4-isopropoxyphenyl)-1,2,4-oxadiazol-3-yl)-1,2,3,4-tetrahydronaphthalen-1-yl)-2-methoxyethanesulfonamide]",9.30 to 10.30
12,"CC(C)Oc1ccc(-c2nc(-c3cccc4c3CCC[C@H]4NS(=O)(=O)CC(=O)O)no2)cc1C#N [Compound 34, (R)-2-(N-(5-(5-(3-cyano-4-isopropoxyphenyl)-1,2,4-oxadiazol-3-yl)-1,2,3,4-tetrahydronaphthalen-1-yl)sulfamoyl)acetic acid]",> 10.30
13,"CC(C)Oc1ccc(-c2nc(-c3cccc4c3CCC[C@@H]4NS(=O)(=O)CC(=O)O)no2)cc1C#N [Compound 35, (S)-2-(N-(5-(5-(3-cyano-4-isopropoxyphenyl)-1,2,4-oxadiazol-3-yl)-1,2,3,4-tetrahydronaphthalen-1-yl)sulfamoyl)acetic acid]",> 10.30
14,"CC(C)Oc1ccc(-c2nc(-c3cccc4c3CCC[C@@H]4NS(=O)(=O)CCO)no2)cc1C#N [Compound 36, (S)-N-(5-(5-(3-cyano-4-isopropoxyphenyl)-1,2,4-oxadiazol-3-yl)-1,2,3,4-tetrahydronaphthalen-1-yl)-2-hydroxyethanesulfonamide]",> 10.30
15,CC(C)Oc1ccc(-c2nc(-c3cccc4c3CCC[C@@H]4NS(=O)(=O)CC(N)=O)no2)cc1C#N [Compound 38],> 10.30
16,CC(C)Oc1ccc(-c2nc(-c3cccc4c3CCC[C@H]4NS(=O)(=O)CC(N)=O)no2)cc1C#N [Compound 39],> 10.30
17,"CC(C)Oc1ccc(-c2nc(-c3cccc4c3CCC[C@H]4NS(=O)(=O)CC(=O)N(C)C)no2)cc1C#N [Compound 40, (R)-2-(N-(5-(5-(3-cyano-4-isopropoxyphenyl)-1,2,4-oxadiazol-3-yl)-1,2,3,4-tetrahydronaphthalen-1-yl)sulfamoyl)-N,N-dimethylacetamide]",> 10.30
18,"CC(C)Oc1ccc(-c2nc(-c3cccc4c3CCC[C@@H]4NS(=O)(=O)CC(=O)N(C)C)no2)cc1C#N [Compound 41, (S)-2-(N-(5-(5-(3-cyano-4-isopropoxyphenyl)-1,2,4-oxadiazol-3-yl)-1,2,3,4-tetrahydronaphthalen-1-yl)sulfamoyl)-N,N-dimethylacetamide]",> 10.30
19,CC(C)Oc1ccc(-c2nc(-c3cccc4c3CCC[C@@H]4NS(=O)(=O)CC(=O)N3CCC3)no2)cc1C#N [Compound 42],> 10.30
20,CC(C)Oc1ccc(-c2nc(-c3cccc4c3CCC[C@H]4NS(=O)(=O)CC(=O)N3CCC3)no2)cc1C#N [Compound 43],> 10.30
21,"CC(C)Oc1ccc(-c2nc(-c3cccc4c3CCC[C@H]4NS(=O)(=O)CCN(C)C)no2)cc1C#N [Compound 44, (R)-N-(5-(5-(3-cyano-4-isopropoxyphenyl)-1,2,4-oxadiazol-3-yl)-1,2,3,4-tetrahydronaphthalen-1-yl)-2-(dimethylamino)ethanesulfonamide]",9.30 to 10.30
22,"CC(C)Oc1ccc(-c2nc(-c3cccc4c3CCC[C@@H]4NS(=O)(=O)CCN(C)C)no2)cc1C#N [Compound 45, (S)-N-(5-(5-(3-cyano-4-isopropoxyphenyl)-1,2,4-oxadiazol-3-yl)-1,2,3,4-tetrahydronaphthalen-1-yl)-2-(dimethylamino) ethanesulfonamide]",8.30 to 9.30
23,CC(C)Oc1ccc(-c2nc(-c3cccc4c3CCC[C@@H]4NS(=O)(=O)CCN3CC[C@@H](O)C3)no2)cc1C#N [Compound 46],8.30 to 9.30
24,CC(C)Oc1ccc(-c2nc(-c3cccc4c3CCC[C@H]4NS(=O)(=O)CCN3CC[C@@H](O)C3)no2)cc1C#N [Compound 47],9.30 to 10.30
25,"CC(C)Oc1ccc(-c2nc(-c3cccc4c3CCC[C@H]4NCCS(C)(=O)=O)no2)cc1C#N [Compound 48, (R)-2-isopropoxy-5-(3-(5-((2-(methylsulfonyl)ethyl)amino)-5,6,7,8-tetrahydronaphthalen-1-yl)-1,2,4-oxadiazol-5-yl)benzonitrile]",9.30 to 10.30
26,"CC(C)Oc1ccc(-c2nc(-c3cccc4c3CCC[C@H]4NCCO)no2)cc1C#N [Compound 50, (R)-5-(3-(5-((2-hydroxyethyl)amino)-5,6,7,8-tetrahydronaphthalen-1-yl)-1,2,4-oxadiazol-5-yl)-2-isopropoxybenzonitrile]",9.30 to 10.30
27,"CC(C)Oc1ccc(-c2nc(-c3cccc4c3CCC[C@@H]4NCCO)no2)cc1C#N [Compound 51, (S)-5-(3-(5-((2-hydroxyethyl)amino)-5,6,7,8-tetrahydronaphthalen-1-yl)-1,2,4-oxadiazol-5-yl)-2-isopropoxybenzonitrile]",9.30 to 10.30
28,"CC(C)Oc1ccc(-c2nc(-c3cccc4c3CCC[C@H]4NCC(=O)O)no2)cc1C#N [Compound 52, (R)-2-((5-(5-(3-cyano-4-isopropoxyphenyl)-1,2,4-oxadiazol-3-yl)-1,2,3,4-tetrahydronaphthalen-1-yl)amino) acetic acid]",> 10.30
29,"CC(C)Oc1ccc(-c2nc(-c3cccc4c3CCC[C@@H]4NCC(=O)O)no2)cc1C#N [Compound 53, (S)-2-((5-(5-(3-cyano-4-isopropoxyphenyl)-1,2,4-oxadiazol-3-yl)-1,2,3,4-tetrahydronaphthalen-1-yl)amino)acetic acid]",9.30 to 10.30
